Source: ChEMBL document CHEMBL1133819, “Structure-based design of caspase-1 inhibitor containing a diphenyl ether sulfonamide” (Bioorg Med Chem Lett, 2001)

Experiments:
[1] = target: T1, Caspase-1 (Homo sapiens, UniProt P29466); experiment: Inhibitory concentration against caspase-1 was determined
T1 sequence (P29466 whole entry): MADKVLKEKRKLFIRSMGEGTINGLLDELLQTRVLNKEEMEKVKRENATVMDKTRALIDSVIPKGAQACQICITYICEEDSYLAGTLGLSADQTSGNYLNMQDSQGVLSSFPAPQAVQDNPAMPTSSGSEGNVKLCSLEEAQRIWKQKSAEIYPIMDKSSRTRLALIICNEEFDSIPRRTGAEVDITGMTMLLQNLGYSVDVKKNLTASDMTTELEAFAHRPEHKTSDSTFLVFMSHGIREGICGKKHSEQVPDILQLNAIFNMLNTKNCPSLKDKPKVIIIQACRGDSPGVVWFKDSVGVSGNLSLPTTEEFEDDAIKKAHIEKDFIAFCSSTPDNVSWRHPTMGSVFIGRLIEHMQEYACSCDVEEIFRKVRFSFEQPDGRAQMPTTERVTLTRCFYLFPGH

[2] = target: T1, Caspase-1; experiment: Binding affinity towards caspase-1 was determined

IC50 [1] [µM] | Ki [2] [µM] | Structure (SMILES)
3.7 | 0.41 | CC(C)c1cccc(Oc2ccccc2S(=O)(=O)N[C@H](C=O)C(=O)O)c1
7.8 | 0.45 | Cc1cc(Oc2ccccc2S(=O)(=O)N[C@H](C=O)C(=O)O)cc(C)c1C
5.3 | 0.62 | CC(C)c1ccc(Oc2ccccc2S(=O)(=O)N[C@H](C=O)C(=O)O)cc1
24 | 24 | O=C[C@@H](NS(=O)(=O)c1ccccc1Oc1ccccc1)C(=O)O
1 | 0.1 | CCC(C)c1ccc(Oc2ccccc2S(=O)(=O)N[C@H](C=O)C(=O)O)cc1C (some centres undefined)
4.4 | 0.29 | O=C[C@@H](NS(=O)(=O)c1ccccc1Oc1ccc(-c2ccccc2)cc1)C(=O)O
14 | 3 | Cc1ccccc1Oc1ccccc1S(=O)(=O)N[C@H](C=O)C(=O)O
9 | 1.1 | Cc1ccc(Oc2ccccc2S(=O)(=O)N[C@H](C=O)C(=O)O)cc1
3.5 | 0.44 | CCC(CC)c1ccc(Oc2ccccc2S(=O)(=O)N[C@H](C=O)C(=O)O)cc1
2.2 | 0.49 | CCC(C)c1ccc(Oc2ccccc2S(=O)(=O)N[C@H](C=O)C(=O)O)cc1 (some centres undefined)
4.8 | 0.88 | O=C[C@@H](NS(=O)(=O)c1ccccc1Oc1ccc(C2CCCC2)cc1)C(=O)O
20 | 1.6 | O=C[C@@H](NS(=O)(=O)c1ccccc1-c1ccccc1)C(=O)O
4.3 | 0.9 | O=C[C@@H](NS(=O)(=O)c1ccccc1Oc1ccc(C2CCCCC2)cc1)C(=O)O
58 | 4.2 | O=C[C@@H](NS(=O)(=O)c1ccccc1Oc1ccc(-c2ccc(C(=O)O)cc2)cc1)C(=O)O
11 | 0.43 | Cc1cccc(Oc2ccccc2S(=O)(=O)N[C@H](C=O)C(=O)O)c1
1 | 0.11 | Cc1cc(Oc2ccccc2S(=O)(=O)N[C@H](C=O)C(=O)O)ccc1C(C)C
13 | 1 | Cc1cccc(Oc2ccccc2S(=O)(=O)N[C@H](C=O)C(=O)O)c1C
